# Test results as given in patent publication US20060276464A1, “Diarylsulfone sulfonamides and use thereof” (Wyeth, priority 2005, published 2006).
# Read-outs that look alike come from different tables or passages of the source.
# Columns and labels:
# SFRP-1 [1] = target: T1, SFRP-1 (Homo sapiens, UniProt Q8N474); experiment: Fluorescence polarization binding assay (competitive displacement of a probe compound from SFRP-1); conditions: fluorescence anisotropy, 45 nM SFRP-1, 20 nM probe;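 note: test compound competes with a fluorescent probe held by SFRP-1, seen as a drop in probe anisotropy after incubation in darkness, with anisotropy as function of rising compound dose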
# T1 sequence (Q8N474 32-314): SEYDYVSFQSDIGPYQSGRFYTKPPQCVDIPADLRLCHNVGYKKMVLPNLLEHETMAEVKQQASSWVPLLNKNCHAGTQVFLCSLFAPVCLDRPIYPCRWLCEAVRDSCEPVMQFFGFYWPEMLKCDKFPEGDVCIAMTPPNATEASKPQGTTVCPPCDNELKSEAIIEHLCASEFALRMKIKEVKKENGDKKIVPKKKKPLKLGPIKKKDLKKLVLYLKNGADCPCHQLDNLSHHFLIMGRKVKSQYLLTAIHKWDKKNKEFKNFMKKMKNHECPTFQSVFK
# SFRP-1 [2] = target: T1, SFRP-1; experiment: Cell-based assay for in vitro measurement of SFRP-1/SARP2 antagonist activity (U2OS cells co-transfected with 16x TCF-tk-Luciferase reporter, Wnt and hSFRP-1); conditions: for fold induction at 10 µM / fold induction at 15 µM: U2OS; for fold induction at 10 µM: read-out: Fold Induction with SFRP-1, U2OS cells, single dose 10 μM, luciferase reporter, fold induction over SFRP-1 control;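 for all read-outs here: U2OS cells co-transfected with a TCF-tk luciferase reporter, a Wnt vector, hSFRP-1 or empty vector and CMV-βgal, luciferase luminescence read in cell lysates alongside βgal activity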
# [3] = read-out: Fold Induction with SFRP-1, Conc 15 μM, single dose, luciferase reporter, fold induction over SFRP-1 control, cells with SFRP-1
# [4] = read-out: Fold Induction without SFRP-1, Conc 15 μM, single dose, luciferase reporter, cells without SFRP-1 (specificity control)
# [5] = read-out: Fold Induction with SFRP-1, Conc 15 μM, with SFRP-1, fold induction over SFRP-1 control, single dose
# [6] = read-out: Fold Induction without SFRP-1, Conc 15 μM, without SFRP-1, single dose
Structure (SMILES),IC50 (SFRP-1 [1]) [nM],EC50 (SFRP-1 [2]) [nM],fold induction at 10 µM (SFRP-1 [2]),fold induction at 15 µM (SFRP-1 [2]; [3]),fold induction at 15 µM (SFRP-1 [2]; [4]),fold induction at 15 µM (SFRP-1 [2]; [5]),fold induction at 15 µM (SFRP-1 [2]; [6])
"CC(C)c1ccc(S(=O)(=O)c2ccccc2)cc1S(=O)(=O)NC1CCOCC1 [Example 670, 2-isopropyl-5-(phenylsulfonyl)-N-(tetrahydro-2H-pyran-4-yl)benzenesulfonamide]",800,2830,3.2,,,,
"COC(=O)c1cccc(S(=O)(=O)N2CCC(NS(=O)(=O)c3cc(S(=O)(=O)c4ccccc4)ccc3C(F)(F)F)CC2)c1 [Example 938, methyl 3-{[4-({[5-(phenylsulfonyl)-2-(trifluoromethyl)phenyl]sulfonyl}amino)piperidin-1-yl]sulfonyl}benzoate]",900,850,4.4,,,,
"CC(C)(C)OC(=O)N1CCC[C@H]1C(=O)N1CCC(NS(=O)(=O)c2cc(S(=O)(=O)c3cccc(C#N)c3)ccc2C(F)(F)F)CC1 [Example 1095, tert-butyl (2S)-2-{[4-({[5-[(3-cyanophenyl)sulfonyl]-2-(trifluoromethyl)phenyl]sulfonyl}amino)piperidin-1-yl]carbonyl}pyrrolidine-1-carboxylate]",60,374,,,,,
"CC(C)(C)OC(=O)N1CCC[C@@H](NS(=O)(=O)c2cc(S(=O)(=O)c3ccccc3)ccc2C(F)(F)F)C1 [Example 787, tert-butyl(3R)-3-({[5-(phenylsulfonyl)-2-(trifluoromethyl)phenyl]sulfonyl}amino)piperidine-1-carboxylate]",300,896,3.7,,,,
"CNc1ccc(S(=O)(=O)c2ccc(C(C)C)c(S(=O)(=O)NC3CCNCC3)c2)cc1 [Example 568, 2-isopropyl-5-{[4-(methylamino)phenyl]sulfonyl}-N-piperidin-4-ylbenzenesulfonamide]",500,,,3.8,1.1,,
"Cc1cc(C)c(S(=O)(=O)c2ccccc2)cc1S(=O)(=O)NC1CCN(C(=O)OC(C)(C)C)CC1 [Example 911, tert-butyl 4-({[2,4-dimethyl-5-(phenylsulfonyl)phenyl]sulfonyl}amino)piperidine-1-carboxylate]",4000,2420,1.9,,,,
"Cc1ccc(S(=O)(=O)c2ccccc2)cc1S(=O)(=O)NC1CCN(C(=O)CN(C)C)CC1 [Example 486, N-[1-(N,N-dimethylglycyl)piperidin-4-yl]-2-methyl-5-(phenylsulfonyl)benzenesulfonamide]",5000,,,2.1,1.1,,
"CCC(O)CNc1ccc(S(=O)(=O)c2ccc(C(C)C)c(S(=O)(=O)NCCn3ccnc3)c2)cc1 (centres unmarked) [Example 452, 5-({4-[(2-hydroxybutyl)amino]phenyl}sulfonyl)-N-[2-(1H-imidazol-1-yl)ethyl]-2-isopropylbenzenesulfonamide]",200,,,,,3.8,1
"Cc1ccc(S(=O)(=O)c2ccc(F)cc2)cc1S(=O)(=O)NC1CCN(Cc2ccccc2)CC1 [Example 574, N-(1-benzylpiperidin-4-yl)-5-[(4-fluorophenyl)sulfonyl]-2-methylbenzenesulfonamide]",6000,,,2.1,1.2,,
"NC(=O)COc1ccc2c(c1)CC(NS(=O)(=O)c1cc(S(=O)(=O)c3ccccc3)ccc1C(F)(F)F)C2 (centres unmarked) [Example 1062, 2-{[2-({[5-(phenylsulfonyl)-2-(trifluoromethyl)phenyl]sulfonyl}amino)-2,3-dihydro-1H-inden-5-yl]oxy}acetamide]",10,34,,,,,
"O=S(=O)(NCCc1cccnc1)c1cc(S(=O)(=O)c2ccccc2)ccc1OC(F)(F)F [Example 660, 5-(phenylsulfonyl)-N-(2-pyridin-3-ylethyl)-2-(trifluoromethoxy)benzenesulfonamide]",2400,3720,4.9,,,,
"Cc1cc(F)ccc1S(=O)(=O)c1ccc(C(C)C)c(S(=O)(=O)NCCc2ccccn2)c1 [Example 596, 5-[(4-fluoro-2-methylphenyl)sulfonyl]-2-isopropyl-N-(2-pyridin-2-ylethyl)benzenesulfonamide]",1600,,,4.2,1.3,,
"O=C(O)c1cccc(S(=O)(=O)N2CCC(CNS(=O)(=O)c3cc(S(=O)(=O)c4ccccc4)ccc3C(F)(F)F)CC2)c1 [Example 904, 3-({4-[({[5-(phenylsulfonyl)-2-(trifluoromethyl)phenyl]sulfonyl}amino)methyl]piperidin-1-yl}sulfonyl)benzoic acid]",60,700,3.5,,,,
"CCCc1ccc(S(=O)(=O)c2ccc(F)cc2)cc1S(=O)(=O)NCCCn1ccnc1 [Example 565, 5-[(4-Fluorophenyl)sulfonyl]-N-[3-(1H-imidazol-1-yl)propyl]-2-propylbenzenesulfonamide]",500,,,4,1.2,,
"O=C(O)CCC(=O)N1CCC(NS(=O)(=O)c2cc(S(=O)(=O)c3ccccc3)ccc2C(F)(F)F)C1 (centres unmarked) [Example 886, 4-oxo-4-[3-({[5-(phenylsulfonyl)-2-(trifluoromethyl)phenyl]sulfonyl}amino)pyrrolidin-1-yl]butanoic acid]",150,1330,2.7,,,,
"Cc1ccccc1S(=O)(=O)c1ccc(C(C)C)c(S(=O)(=O)NC2CCOCC2)c1 [Example 541, 2-isopropyl-5-[(2-methylphenyl)sulfonyl]-N-(tetrahydro-2H-pyran-4-yl)benzenesulfonamide]",1500,,,3.5,1.2,,
"O=C(NCCNS(=O)(=O)c1cc(S(=O)(=O)c2ccccc2)ccc1C(F)(F)F)c1ccncc1 [Example 783, N-[2-({[5-(Phenylsulfonyl)-2-(trifluoromethyl)phenyl]sulfonyl}amino)ethyl]isonicotinamide]",700,,3.2,,,,
"CC(C)(C)OC(=O)N1CC[C@@H](NS(=O)(=O)c2cc(S(=O)(=O)c3ccccc3)ccc2C(F)(F)F)C1 [Example 795, tert-butyl(3R)-3-({[5-(phenylsulfonyl)-2-(trifluoromethyl)phenyl]sulfonyl}amino)pyrrolidine-1-carboxylate]",80,140,3.8,,,,
"CCOC(=O)N1CCC(NS(=O)(=O)c2cc(S(=O)(=O)c3ccc(F)cc3)ccc2C(C)C)CC1 [Example 526, ethyl 4-[({5-[(4-fluorophenyl)sulfonyl]-2-isopropylphenyl}sulfonyl)amino]piperidine-1-carboxylate]",500,,,2.1,1.1,,
"CC(C)c1ccc(S(=O)(=O)c2ccccc2)cc1S(=O)(=O)NC[C@H]1CC[C@H](C(=O)O)CC1 [Example 954, trans-4-[({[2-isopropyl-5-(phenylsulfonyl)phenyl]sulfonyl}amino)methyl]cyclohexanecarboxylic acid]",900,5570,2.2,,,,
"C[S+]([O-])CCC(=O)N1CCC(NS(=O)(=O)c2cc(S(=O)(=O)c3ccccc3)ccc2C(F)(F)F)CC1 (centres unmarked) [Example 1054, N-{1-[3-(methylsulfinyl)propanoyl]piperidin-4-yl}-5-(phenylsulfonyl)-2-(trifluoromethyl)benzenesulfonamide]",40,717,,,,,
"O=S(=O)(NCC1CCOCC1)c1cc(S(=O)(=O)c2ccccc2)ccc1C(F)(F)F [Example 765, 5-(phenylsulfonyl)-N-(tetrahydro-2H-pyran-4-ylmethyl)-2-(trifluoromethyl)benzenesulfonamide]",190,754,3.7,,,,
"N#Cc1ccc(C(=O)N2CCC(NS(=O)(=O)c3cc(S(=O)(=O)c4ccccc4)ccc3Cl)CC2)cc1 [Example 657, 2-chloro-N-[1-(4-cyanobenzoyl)piperidin-4-yl]-5-(phenylsulfonyl)benzenesulfonamide]",2400,9030,2.4,,,,
"CCCCOC(=O)N(C)CCNS(=O)(=O)c1cc(S(=O)(=O)c2ccccc2)ccc1C(F)(F)F [Example 865, butyl methyl[2-({[5-(phenylsulfonyl)-2-(trifluoromethyl)phenyl]sulfonyl}amino)ethyl]carbamate]",300,2140,2.9,,,,
"COc1cccc(S(=O)(=O)c2ccc(C)c(S(=O)(=O)NCCc3ccccn3)c2)c1OC [Example 422, 5-[(2,3-dimethoxyphenyl)sulfonyl]-2-methyl-N-(2-pyridin-2-ylethyl)benzenesulfonamide]",2800,,,,,1.9,1.2
"CCCc1ccc(S(=O)(=O)c2ccc(F)cc2)cc1S(=O)(=O)NC1CCCC1 [Example 563, N-Cyclopentyl-5-[(4-fluorophenyl)sulfonyl]-2-propylbenzenesulfonamide]",3000,,,2.8,1.2,,
